Source: article PMC5321741, “Arylmethylamino steroids as antiparasitic agents” (Nature Communications, 2017)
Where two headings read alike, the source gives them in different places.

Tests used:
[1] = system: HUVEC; experiment: antiproliferative activity on HUVEC cells; assay type: cell-based; settings: Homo sapiens, HUVEC, 72 h
Description: (§1) Compounds were tested for their antiproliferative activity on HUVEC and K-562 cells and for cytotoxicity on HeLa cells using standard protocols. K-562 (DSM ACC 10), HUVEC (ATCC CRL-1730), and HeLa (DSM ACC 57) cells were cultured as described previously. To assay the antiproliferative and cytotoxic effect, procedures were carried out as described before. In brief, for each experiment with K-562 and HeLa ∼10,000 cells were seeded per well of the 96-well microplates. For the cytotoxicity assay, the HeLa cells were preincubated for 48 h without the test substances. Cells were incubated for 72 h at 37 °C in a humidified atmosphere and 5% CO2. Suspension cultures of K-562 in microplates were analysed by an electronic cell analyzer system CASY 1 (SCHÄRFE, Reutlingen, Germany). The monolayer of the HUVEC and HeLa cells were fixed by glutaraldehyde (MERCK) and stained with a 0.05% solution of methylene blue (SERVA). After gently washing, the stain was eluted by 0.2 ml of 0.33 N HCl in the wells. The optical densities were measured at 660 nm in a microplate reader. The calculations of the different values of GI50 and CC50 were performed with the software Magellan (TECAN).

[2] = system: P. falciparum (strain 3D7); experiment: 72 h 3H-hypoxanthine incorporation assay, asexual blood stages; assay type: cell-based, Plasmodium falciparum; settings: Plasmodium falciparum, 3D7, 72 h 3H-hypoxanthine incorporation, asexual blood stages; read-out: Antiplasmodial activity IC50 Pf (3D7)
[3] = system: K-562; experiment: antiproliferative activity on K-562 cells; assay type: cell-based; settings: Homo sapiens, K562, 72 h
Description: as §1

[4] = cytotoxicity on HeLa cells; assay type: cell-based; settings: human, HeLa cells
Description: as §1

[5] = system: P. berghei GFP ANKA malaria strain; experiment: P. berghei mouse model (Peter's test); assay type: in vivo, Plasmodium berghei in NMRI mice; settings: for % activity (reduction of parasitaemia): day 4
Description: The animal experiments described here were performed at the Swiss Tropical and Public Health Institute (Swiss TPH, Basel, Switzerland), they were approved by the Swiss Cantonal Authorities (‘Kantonales Veterinäramt Basel Stadt') adhering to local and national regulations of laboratory animal welfare in Switzerland. The best compounds were tested in the murine P. berghei model essentially as described. The infection was initiated at day 0 with the P. berghei GFP ANKA malaria strain (donation from AP Waters and CJ Janse, Leiden University). From donor mice (female NMRI mice, 18–20 grams (about 3 weeks) from Charles River Germany) with ∼30% parasitaemia, heparinized blood was taken and diluted in physiological saline to 10^8 parasitized erythrocytes/ml. An aliquot (0.2 ml) of this suspension was injected intravenously into experimental and control groups of mice (female NMRI mice, 18–20 grams (about 3 weeks) from Charles River Germany). Usually, in untreated control mice parasitaemia rose regularly to ∼30% by day 3 post-infection. Control mice died between days 6 and 7 post infection. In the experiments described here, however, control animals (n=5) were killed on day 4 post infection for ethical reasons.
The steroid compounds were prepared at an appropriate concentration as a solution/suspension in Tween 80/alcohol (7:3, Tween 80 and absolute ethanol, respectively), followed by a 10x dilution in water. […] The route of administration was i.p., p.o., s.c. in a volume of 10 ml kg^−1.
The degree of infection (parasitaemia expressed in % of infected erythrocytes) was determined by FACS analysis on day 4 (96 h post infection). The difference of the mean infection rate of the control group (=100%) to the test group was calculated and expressed as a percent reduction. For example, activity determination with a mean of 2% parasitaemia in treated mice and a mean of 40% parasitaemia in the control animals is calculated as follows: (40−2%)/40% × 100=95% activity. The survival time in days was recorded up to 30 days after infection. A compound was considered curative if the animal survived to day 30 after infection with no detectable parasites (confirmed by light microscopy).

[6] = system: P. falciparum NF54; experiment: IC50 speed assay; assay type: cell-based, Plasmodium falciparum; settings: for IC50: Plasmodium falciparum, mean±s.d., three biological replicates
Description: To assess the rapidity of growth inhibition induced by the steroid compounds, the so-called IC50 speed assay[16] was conducted for compound 1o on P. falciparum NF54 (Fig. 2a,b).

[7] = system: haem; experiment: ESI-MS collision-induced dissociation of haem adducts; assay type: binding; settings: 50 µM haem and 50 µM substrate
Description: Compound Molar Adduct DV50 Bottom Dissociation mass [Haem+S] (V) plateau Constant
Supplementary Table 7. ESI-MS-CID data (m/z, calculated DV50 = dissociation voltage at 50% and % bottom plateau) of the [haematin-drug]+ adducts and dissociation constants (KD, µM) of the haematin-drug complexes measured with absorption spectrophotometric titrations.
Conditions: 50 µM haem and 50 µM substrate in H2O/CH3CN (5/95) + 0.1% formic acid.
Stability responses of the haem substrate adduct were obtained via ESI-CID experiments.
Positive mode; fragmentor voltage from 20 V to 400 V with 20 V increments. […]
- 41/120 g), and complete dissolution was achieved using an ultrasonic bath. All solutions were protected from daylight to avoid any photochemical degradation. All the physiochemical measurements were carried out at 25.0(2) °C. […]
Electrospray mass spectrometric measurements stopping point
Electrospray mass spectra of the haem complexes were obtained with an Agilent Technologies 6120 quadrupole equipped with an electrospray (ESI) interface. For

[8] = NF54, read-out: IC50 24 h, 24 h compound incubation
[9] = NF54, 48 h compound incubation, read-out: IC50 48 h
[10] = NF54, 72 h compound incubation, read-out: IC50 72 h

COc1ccc2c(c1)CCC1C2CC[C@@]2(C)C1CC[C@@H]2NCc1ccccc1O (stereo partly drawn) [2c]
GI50 [1]: 10 µM
IC50 [2]: 73 nM
GI50 [3]: 5100 nM
CC50 at 72 h [4]: 42.9 µM
Mouse survival in days, Average ([5]; 3x 10 mg/kg s.c.): 10 days
% activity (reduction of parasitaemia) ([5]; 3x 10 mg/kg s.c.): 47%
Mouse survival in days, Average ([5]; 3x 30 mg/kg s.c.): 14 days
% activity (reduction of parasitaemia) ([5]; 3x 30 mg/kg s.c.): 87%
Mouse survival in days, Average ([5]; 3x 100 mg/kg p.o.): 16 days
% activity (reduction of parasitaemia) ([5]; 3x 100 mg/kg p.o.): 99%

COc1ccc2c(c1)CCC1C2CC[C@]2(C)C[C@H](NCc3ccccc3O)CC12 (stereo partly drawn) [3c]
GI50 [1]: 4.1 µM
IC50 [2]: 42 nM
GI50 [3]: 3800 nM
CC50 at 72 h [4]: 20.7 µM

COc1ccc2c(c1)CCC1C2CC[C@]2(C)C[C@@H](NCc3ccccc3O)CC12 (stereo partly drawn) [4c]
GI50 [1]: 3.1 µM
IC50 [2]: 63 nM
GI50 [3]: 2600 nM
CC50 at 72 h [4]: 12 µM

COc1ccc2c(c1)CCC1C2CC[C@@]2(C)C1C[C@@H](NCc1ccccc1O)[C@H]2O (stereo partly drawn) [5c]
GI50 [1]: 2.2 µM
IC50 [2]: 160 nM
GI50 [3]: 2000 nM
CC50 at 72 h [4]: 11.3 µM

COc1ccc2c(c1)CCC1C2CC[C@@]2(C)C1C[C@H](NCc1ccccc1O)[C@H]2O (stereo partly drawn) [6c]
GI50 [1]: 4.4 µM
IC50 [2]: 676 nM
GI50 [3]: 2500 nM
CC50 at 72 h [4]: 11.3 µM

COc1ccc2c(c1)CCC1C2CC[C@@]2(C)C1C[C@@H](NCc1ccccc1O)[C@@H]2O (stereo partly drawn) [7c]
GI50 [1]: 1.2 µM
IC50 [2]: 120 nM
GI50 [3]: 2000 nM
CC50 at 72 h [4]: 10.1 µM

COc1ccc2c(c1)CCC1C2CC[C@@]2(C)C1C[C@H](NCc1ccccc1O)[C@@H]2O (stereo partly drawn) [8c]
GI50 [1]: 2.5 µM
IC50 [2]: 224 nM
GI50 [3]: 500 nM
CC50 at 72 h [4]: 5.9 µM

COc1ccc2c(c1)CCC1C2CC[C@]2(C)C1CC(NCc1ccccc1O)[C@@H]2O (stereo partly drawn) [9c]
GI50 [1]: 11.2 µM
IC50 [2]: 999 nM
GI50 [3]: 8400 nM
CC50 at 72 h [4]: 48.8 µM

COc1ccc2c(c1)CCC1C2CC[C@]2(C)C1C[C@@H](NCc1ccccc1O)[C@@H]2O (stereo partly drawn) [10c]
GI50 [1]: 2.9 µM
IC50 [2]: 84 nM
GI50 [3]: 2500 nM
CC50 at 72 h [4]: 11.5 µM

COc1ccc2c(c1)CCC1C2CC[C@]2(C)C1C[C@H](NCc1ccccc1O)[C@@H]2O (stereo partly drawn) [11c]
GI50 [1]: 22 µM
IC50 [2]: 141 nM
GI50 [3]: 100 nM
CC50 at 72 h [4]: 6.4 µM

CC(C)CCC[C@@H](C)[C@H]1CCC2C3CCC4C[C@@H](O)[C@@H](O)[C@H](NCc5ccccc5O)[C@]4(C)C3CC[C@@]21C (stereo partly drawn) [12c]
GI50 [1]: 12.4 µM
IC50 [2]: 4360 nM
GI50 [3]: 16500 nM
CC50 at 72 h [4]: 38 µM

C[C@H]1[C@H](OC(=O)CCC(=O)O)O[C@@H]2O[C@@]3(C)CC[C@H]4[C@H](C)CC[C@@H]1[C@@]24OO3 [Artesunate]
IC50 [6, 8]: 5.5 ± 0.8 nM
IC50 [6, 9]: 5.7 ± 0.5 nM
IC50 [6, 10]: 4.7 ± 0.3 nM

CCc1nc(N)nc(N)c1-c1ccc(Cl)cc1 [Pyrimethamine]
speed of action (IC50 shift across 24, 48, 72 h) [6]: slow-acting compound
IC50 [6, 8]: 220 ± 61 nM
IC50 [6, 9]: 30.4 ± 7.6 nM
IC50 [6, 10]: 15.2 ± 1.6 nM

COc1ccc2c(c1)CCC1C2CC[C@@]2(C)C1CC[C@@H]2N(CCCn1ccnc1)CCc1ccccn1 (stereo partly drawn) [STS 948]
GI50 [1]: 7.2 µM
DV50 (dissociation voltage at 50%) of haem adduct ([7]; ESI-CID, 20 V to 400 V): 367 V
Bottom plateau (adduct remaining at 400 V) ([7]; fragmentor voltage 400 V): 36%
IC50 [2]: 675 nM
GI50 [3]: 6600 nM
CC50 at 72 h [4]: 18.3 µM
